Assay results reported in patent US20230248702A1, “MICELLE COMPRISING BENZIMIDAZOLE-CARBOHYDRATE CONJUGATE COMPOUND, PREPARATION METHOD THEREOF AND USE THEREOF AS ANTICANCER AGENT OR ANTIVIRAL AGENT COMPRISING THE SAME” (BIOMETRIX TECHNOLOGY INC., priority 2021, published 2023).

What was measured:
[1] = system: cancer cell lines (pancreatic cancer cell line ASPC-1, lung cancer cell line A549, breast cancer cell line MCF-7, colorectal cancer cell line HCT 116); assay: Test for inhibition of growth of cancer cell lines (WST-8 cell viability assay); assay type: cell-based, humans
Method: Pancreatic cancer cell lines ASPC-1, lung cancer cell lines A549, breast cancer cell lines MCF-7, and colorectal cancer cell lines HCT 116 of humans were distributed by Korean Cell Line Bank (KCLB, Seoul in Korea) and grown using culture media. Fetal bovine serum (FBS), 0.1 mM MEM nonessential amino acid (NEAA), 2 mM L-glutamine, and 1 % of penicillin-streptomycin were treated with trypsin every two-three days in a humidified cell culture incubator containing 5 % of CO2 at 37° C. by using DMEM and a 10 % culture flask according to guidelines provided by the KCLB, to subculture cells. […] After 24 hours, each of the nine sorts of compounds in table 2 was added to the well under six concentration conditions and was incubated for 24 hours. After the incubation, the culture medium was thrown away, and cell viability in each well was measured according to an instruction of the manufacturer, using a WST-8 cell viability assay kit (Quanti-MaxTM, BIOMAX). The analysis used the principle that the dehydrogenase of living cells decomposes tetrazolium salt to generate formazan, and based on this, the living cells were quantitatively evaluated. Reduced formazan dye (formazan salt) is soluble in the cell culture medium, and the amount of formazan (formazan) was measured using the direct proportionality to the number of viable cells.

[2] = system: normal lung cell lines MRC-5; assay: Test for toxicity on normal cell lines (WST-8 cell viability assay); assay type: cell-based; conditions: rating relative to doxorubicin, 0-50 µM, incubated for 24 hours
Method: Normal lung cell lines MRC-5 were distributed by Korean Cell Line Bank (KCLB, Seoul in Korea) and grown using a complete culture medium. Fetal bovine serum (FBS), 0.1 mM MEM nonessential amino acid (NEAA), 2 mM L-glutamine, and 1 % of penicillin-streptomycin were treated with trypsin every two-three days in a humidified cell culture incubator containing 5 % of CO2 at 37° C. by using DMEM and a 10 % culture flask according to guidelines provided by the KCLB, to subculture cells. The culture was incubated until it reached 80-90 % confluence, and the cells continuously moved to the culture flask for a test of inhibition of growth of cancer cell lines.
The normal cell lines (MRC-5) were seeded in 96-well plates at about 7,000 cells per well. […]
After the incubation, the culture medium was thrown away, and cell viability in each well was measured according to an instruction of the manufacturer, using a WST-8 cell viability assay kit (Quanti-MaxTM, BIOMAX).
The analysis used the principle that the dehydrogenase of living cells decomposes tetrazolium salt to generate formazan, and based on this, the living cells were quantitatively evaluated. Reduced formazan dye (formazan salt) is soluble in the cell culture medium, and the amount of formazan (formazan) was measured using the direct proportionality to the number of viable cells.

SMILES | Test for inhibition of growth of cancer cell line ([1]; rating relative to doxorubicin, 0-50 µM, incubated for 24 hours) | Test for toxicity on normal cell line [2] | total number of cancer cells remained within 24 hours ([1]; concentrations of Table 2 (0-50 µM), 24 hours) [%]
CCCSc1ccc2nc(NC3O[C@H](CO)[C@@H](O)[C@H](O)[C@H]3O)[nH]c2c1 (stereo partly drawn) [Albendazole-glucose conjugate (Al-G), 6-(propylthio)-1H-benzoimidazol-2-aminoglucose] | C (a C rating denotes a very weak quality (10 times or more)) | AAA (an AAA rating denotes no toxicity (1/30 times or less)) | –
COc1cccc2c1C(=O)c1c(O)c3c(c(O)c1C2=O)C[C@@](O)(C(=O)CO)C[C@@H]3O[C@H]1C[C@H](N)[C@H](O)[C@H](C)O1 [doxorubicin, reference compound] | – | – | ≥ 70
